Among the test systems are MDA-MB-435; MCF7; Hs-578T; A498; SK-OV-3; DU-145; OVCAR-4; SK-MEL-2; ACHN; UACC-62; TK-10; OVCAR-3; IGROV-1; HCT-15; U-251; Malme-3M; KM12; HOP-92; HCC 2998.
Experiment in all cases: DTP human tumour cell line panel, 48 h

The values below come from ChEMBL document CHEMBL1201862, “PubChem BioAssay data set” (2004).

One may read the GI50 as the concentration that inhibits growth by half.

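Compound exposure: 48 hours, 5 concentrations, 96-well plates. At the GI50, growth is halved.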 Activity calls are given as the source filed them. No stated cut-off is given here; in the data, active = GI50 up to about 1.1 µM and inactive = higher.

`C[C@@H]1CCC2C(C)(C)C(/C=C\C=O)C3(C)OC213` (stereo not given in full): the GI50 was 27.5 µM (inactive) in the experiment with MDA-MB-435; 40.6 µM (inactive) in the experiment on MCF7; 21.5 µM (inactive) with Hs-578T; > 100 µM (inactive) in the experiment on A498; 44.6 µM (inactive) in the experiment on SK-OV-3; 29.1 µM (inactive) with DU-145. The GI50 in the experiment on OVCAR-4 is 54.5 µM (inactive); in the experiment on SK-MEL-2, 42.9 µM (inactive); in the experiment on ACHN it was 71.4 µM (inactive); in the experiment with UACC-62, 53.2 µM (inactive); in the experiment with TK-10, 72.6 µM (inactive); in the experiment on OVCAR-3 it was 33.4 µM (inactive). Besides, the GI50 was 24.6 µM (inactive) in the experiment with IGROV-1; 25.4 µM with HCT-15; 28.6 µM (inactive) with U-251; 24.5 µM (inactive) in the experiment on Malme-3M; 36.1 µM (inactive) in the experiment on KM12; 26.5 µM (inactive) in the experiment with HOP-92. Further, the GI50 with HCC 2998 is 48.5 µM (inactive).
Take `Cn1ccnc1Oc1ccc(Cl)cc1`: the GI50 in the experiment with MDA-MB-435 is 12.4 µM (inactive); in the experiment on MCF7 it was 12 µM (inactive); with Hs-578T, 24.4 µM (inactive); in the experiment on A498, 16.9 µM (inactive); in the experiment on SK-OV-3, 47.4 µM (inactive); with DU-145, 15.9 µM (inactive). For the same compound, the GI50 in the experiment with OVCAR-4 was 6.12 µM (inactive); with SK-MEL-2, 16.4 µM (inactive); in the experiment with ACHN, 12.8 µM (inactive); in the experiment with UACC-62, 11.1 µM (inactive); in the experiment on TK-10, 18.7 µM (inactive); with HCT-15, 11.7 µM. The GI50 in the experiment with U-251 was 17.9 µM (inactive); in the experiment with Malme-3M it was 2.28 µM (inactive); with HOP-92, 11 µM (inactive); in the experiment on HCC 2998, 4.57 µM (inactive).
Take `CCC(C)[C@H](NC(=O)[C@H](Cc1ccccc1)NC(=O)N(CC)c1ccccc1)C(=O)N[C@@H](CC(C)C)C(=O)OC` (stereo not given in full): the GI50 in the experiment with MDA-MB-435 was 24 µM (inactive); in the experiment with MCF7, 25.7 µM (inactive); in the experiment with Hs-578T, 63.1 µM (inactive); in the experiment on A498, > 100 µM (inactive); with SK-OV-3 it was > 100 µM (inactive); in the experiment with DU-145 it was 33.9 µM (inactive). Moreover, the GI50 was 94.4 µM (inactive) in the experiment with OVCAR-4; 36.6 µM (inactive) with SK-MEL-2; 25.6 µM (inactive) with ACHN; 48 µM (inactive) with UACC-62; 37.9 µM (inactive) in the experiment on TK-10; 24.8 µM (inactive) in the experiment with OVCAR-3. Further, the GI50 in the experiment on IGROV-1 is 20.4 µM (inactive); in the experiment with HCT-15, 38.6 µM; in the experiment on U-251, 38.5 µM (inactive); in the experiment with Malme-3M, 31 µM (inactive); in the experiment with KM12, 22 µM (inactive); in the experiment with HOP-92, 40.7 µM (inactive). Further, in the experiment on HCC 2998, the GI50 was 42.2 µM (inactive).
Turning to `O=c1[nH]nc(Cc2ccc(Cl)cc2)n1Nc1ccccc1`, the GI50 with MDA-MB-435 is > 100 µM (inactive); with MCF7, > 100 µM (inactive); with Hs-578T it was 47.9 µM (inactive); in the experiment on A498, > 100 µM (inactive); with DU-145, 4.94 µM (inactive); in the experiment with OVCAR-4 it was > 100 µM (inactive). Besides, the GI50 in the experiment on SK-MEL-2, in the experiment with ACHN, with UACC-62, in the experiment with TK-10, with OVCAR-3 and in the experiment with IGROV-1 was > 100 µM (inactive) each time. For the same compound, the GI50 in the experiment on HCT-15 was > 100 µM; with U-251 it was > 100 µM (inactive); in the experiment on Malme-3M it was > 100 µM (inactive); in the experiment with KM12 it was > 100 µM (inactive); in the experiment on HOP-92 it was > 100 µM (inactive); in the experiment on HCC 2998 it was > 100 µM (inactive).
Consider `NC(Cc1ccccc1)(C(=O)O)C(=O)O`, for which the GI50 in the experiment on MDA-MB-435, in the experiment with MCF7, in the experiment on Hs-578T, with A498, in the experiment with SK-OV-3 and in the experiment with DU-145 was > 100 µM (inactive) in each case. Moreover, the GI50 in the experiment on OVCAR-4, in the experiment on SK-MEL-2, in the experiment on ACHN, in the experiment with UACC-62, with TK-10 and in the experiment on OVCAR-3 was > 100 µM (inactive) each time. Moreover, the GI50 in the experiment with IGROV-1 was > 100 µM (inactive); in the experiment on HCT-15, > 100 µM; in the experiment with U-251, > 100 µM (inactive); in the experiment on Malme-3M, > 100 µM (inactive); with KM12 it was > 100 µM (inactive); in the experiment on HOP-92 it was > 100 µM (inactive). For the same compound, in the experiment on HCC 2998, the GI50 was > 100 µM (inactive).
Turning to `COc1cc2cc3c4cc(OC)c(OC)cc4cc[n+]3c(C)c2cc1OC` [CORALYNE], the GI50 in the experiment with MDA-MB-435 was > 100 µM (inactive); in the experiment on MCF7, > 100 µM (inactive); in the experiment on Hs-578T, 24.9 µM (inactive); with A498, 6.05 µM (inactive); in the experiment on SK-OV-3 it was > 100 µM (inactive); with DU-145, > 100 µM (inactive). Besides, the GI50 is 67.5 µM (inactive) in the experiment with OVCAR-4; > 100 µM (inactive) in the experiment on SK-MEL-2; > 100 µM (inactive) with ACHN; 23.4 µM (inactive) in the experiment on UACC-62; > 100 µM (inactive) in the experiment with TK-10; > 100 µM (inactive) with OVCAR-3. Besides, the GI50 was 37.3 µM (inactive) in the experiment with IGROV-1; 48.2 µM in the experiment on HCT-15; 9.59 µM (inactive) in the experiment on U-251; 60.1 µM (inactive) with Malme-3M; 88.7 µM (inactive) with KM12; > 100 µM (inactive) in the experiment on HOP-92. In addition, the GI50 with HCC 2998 is 42.7 µM (inactive).
As to `COc1cc2oc(-c3ccc4c(c3)OCO4)c(OC)c(=O)c2c(OC)c1OC`, the GI50 was > 100 µM (inactive) with MDA-MB-435; > 100 µM (inactive) in the experiment with MCF7; 52.2 µM (inactive) with Hs-578T; 33.7 µM (inactive) with A498; 44.7 µM (inactive) in the experiment on SK-OV-3; > 100 µM (inactive) with DU-145. In addition, the GI50 is > 100 µM (inactive) in the experiment with OVCAR-4; > 100 µM (inactive) with SK-MEL-2; 59.4 µM (inactive) in the experiment with ACHN; > 100 µM (inactive) in the experiment on UACC-62; 32.8 µM (inactive) in the experiment with TK-10; > 100 µM (inactive) in the experiment with OVCAR-3. The GI50 was 67.9 µM (inactive) with IGROV-1; > 100 µM with HCT-15; 38.2 µM (inactive) with U-251; > 100 µM (inactive) in the experiment on Malme-3M; > 100 µM (inactive) in the experiment on KM12; 1.35 µM (inactive) in the experiment with HOP-92. Further, in the experiment with HCC 2998, the GI50 was > 100 µM (inactive).
As for `CC1(C)[C@H]2CC[C@]1(C)[C@H](OC(=O)NNC(=O)O[C@@H]1C[C@@H]3CC[C@@]1(C)C3(C)C)C2`, the GI50 in the experiment with MDA-MB-435 was 21.2 µM (inactive); in the experiment on MCF7, 10.9 µM (inactive); in the experiment with Hs-578T it was 14.2 µM (inactive); in the experiment with A498, 16.3 µM (inactive); in the experiment on SK-OV-3, 14.3 µM (inactive); in the experiment with DU-145, 16.3 µM (inactive). In addition, the GI50 is 11.4 µM (inactive) in the experiment with OVCAR-4; 16.8 µM (inactive) in the experiment with SK-MEL-2; 18.7 µM (inactive) with ACHN; 17.4 µM (inactive) in the experiment on UACC-62; 20.6 µM (inactive) in the experiment with TK-10; 11.9 µM (inactive) in the experiment on OVCAR-3. Besides, the GI50 in the experiment on IGROV-1 is 15.4 µM (inactive); with HCT-15, 12.5 µM; in the experiment with U-251, 16 µM (inactive); in the experiment with Malme-3M it was 16.1 µM (inactive); in the experiment on KM12, 15.7 µM (inactive); with HOP-92 it was 15.1 µM (inactive). In the experiment on HCC 2998, the GI50 was 14.1 µM (inactive).
Turning to `O=c1[nH]nc(Cc2c[nH]c3ccccc23)o1`, the GI50 in the experiment with MDA-MB-435, in the experiment with MCF7, in the experiment on Hs-578T, in the experiment on A498, in the experiment on DU-145 and in the experiment on OVCAR-4 was > 100 µM (inactive) in each case. Besides, the GI50 with SK-MEL-2, in the experiment on ACHN, with UACC-62, with TK-10, in the experiment on OVCAR-3 and in the experiment on IGROV-1 was > 100 µM (inactive) in each case. Besides, the GI50 with HCT-15 was > 100 µM; with U-251, > 100 µM (inactive); in the experiment on Malme-3M it was > 100 µM (inactive); with KM12 it was > 100 µM (inactive); in the experiment with HOP-92, > 100 µM (inactive); in the experiment with HCC 2998 it was > 100 µM (inactive).
In the case of `[N-]=[N+]=Nc1c(Cc2ccccc2)c(Cl)nc2ccccc12`, the GI50 in the experiment on MDA-MB-435 is 13.6 µM (inactive); with MCF7, 21.3 µM (inactive); in the experiment on Hs-578T it was 21.3 µM (inactive); in the experiment with A498, 26.2 µM (inactive); with SK-OV-3 it was 53 µM (inactive); in the experiment with DU-145, 42.8 µM (inactive). Moreover, the GI50 with OVCAR-4 is 42 µM (inactive); in the experiment on SK-MEL-2 it was 16.6 µM (inactive); in the experiment with ACHN, 25.1 µM (inactive); with UACC-62, 22.6 µM (inactive); in the experiment on TK-10, 23.8 µM (inactive); with OVCAR-3 it was 12.5 µM (inactive). The GI50 was 26.6 µM (inactive) with IGROV-1; 35.2 µM with HCT-15; 21.1 µM (inactive) in the experiment on Malme-3M; 16.3 µM (inactive) with KM12; 20.2 µM (inactive) in the experiment on HOP-92; 49.4 µM (inactive) in the experiment on HCC 2998.
With `CC(C)(C)OC(=O)NCCCCC(NC(=O)c1ccccc1)C(N)=O` (stereo not given), the GI50 with MDA-MB-435 is > 100 µM (inactive); in the experiment with MCF7, > 100 µM (inactive); in the experiment with Hs-578T it was > 100 µM (inactive); in the experiment on A498, > 100 µM (inactive); in the experiment with SK-OV-3 it was 99.1 µM (inactive); in the experiment with DU-145, > 100 µM (inactive). Further, the GI50 was > 100 µM (inactive) in the experiment with OVCAR-4; > 100 µM (inactive) in the experiment with SK-MEL-2; > 100 µM (inactive) in the experiment on ACHN; 71.9 µM (inactive) in the experiment with UACC-62; > 100 µM (inactive) with TK-10; > 100 µM (inactive) in the experiment with OVCAR-3. The GI50 with HCT-15 is > 100 µM; in the experiment on U-251 it was > 100 µM (inactive); in the experiment with Malme-3M it was > 100 µM (inactive); in the experiment on KM12, > 100 µM (inactive).
